Legend:
DIPGX29 [1] = H3.3 K27M diffuse intrinsic pontine glioma line; assay: maximal growth inhibition (yFin) relative to DMSO / staurosporine; higher = more efficacious
In short: (§1)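 Compounds were delivered by pin tool as a 10-point threefold dilution series with a mean top concentration of 35 μM, in triplicate, to patient-derived pHGG/DIPG cell lines and astrocyte controls growing on 1% Geltrex-coated 384-well plates. Incubation lasted 7 days, or 3 days for iAstro, at 37 °C with 5% CO2. EC50 and maximal response (yFin) come from the three- or four-parameter log-logistic fit with the lowest AICc, applied to pooled, log2-transformed CellTiter-Glo luminescence normalised per plate to % activity between solvent (negative) and positive control wells.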

SUDIPGIV [2] = diffuse intrinsic pontine glioma line; assay: as above
In short: as §1

DIPGX37 [3] = H3.3 K27M diffuse intrinsic pontine glioma line; assay: as above
In short: as §1

DIPGX7 [4] = H3.3 K27M diffuse intrinsic pontine glioma line; assay: as above
In short: as §1

SUDIPGXIX [5] = diffuse intrinsic pontine glioma line; assay: as above
In short: as §1

DIPGX9 [6] = diffuse intrinsic pontine glioma line; assay: as above
In short: as §1

SUDIPGXIII [7] = diffuse intrinsic pontine glioma line; assay: as above
In short: as §1

HGGX42 [8] = H3.3 G34R paediatric high-grade glioma line; assay: as above
In short: as §1

HGGX39 [9] = paediatric high-grade glioma line; assay: as above
In short: as §1

SUDIPGXXI [10] = diffuse intrinsic pontine glioma line; assay: as above
In short: as §1

DIPGX29 [11] = assay: area under dose-response curve of % growth inhibition (log2 RLU vs DMSO / staurosporine), 1e-11 to 1e-4 M (% x log10 M); higher = more growth inhibition
In short: (§2)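 Area under the curve was derived with the trapezoid rule from a fitted log-logistic curve, switching to a smoothing spline if the sigmoid fit failed. It rested on per-plate % activity between solvent and positive controls, calculated from log2-transformed CellTiter-Glo luminescence after 7 days of exposure (3 days for iAstro) at 37 °C, 5% CO2. Patient-derived pHGG/DIPG lines and astrocytes on 1% Geltrex-coated 384-well plates received a 10-point threefold dilution series, mean top concentration 35 μM, in triplicate.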

HGGX2 = paediatric high-grade glioma line; assay: as above
In short: as §2

SUDIPGIV [12] = assay: as above
In short: as §2

DIPGX37 [13] = assay: as above
In short: as §2

DIPGX7 [14] = assay: as above
In short: as §2

SUDIPGXIX [15] = assay: as above
In short: as §2

DIPGX9 [16] = assay: as above
In short: as §2

SUDIPGVI [17] = diffuse intrinsic pontine glioma line; assay: as above
In short: as §2

HGGX6 [18] = H3.3 G34R paediatric high-grade glioma line; assay: as above
In short: as §2

HABS = astrocyte control; assay: as above
In short: as §2

SUDIPGXVII [19] = diffuse intrinsic pontine glioma line; assay: as above
In short: as §2

SUDIPGXIII [20] = assay: as above
In short: as §2

HGGX42 [21] = assay: as above
In short: as §2

HGGX39 [22] = assay: as above
In short: as §2

iAstro = astrocyte control; assay: as above
In short: as §2

SUDIPGXXI [23] = assay: as above
In short: as §2

DIPGX29 [24] = assay: EC50 (inflection of fitted growth-inhibition curve) (log10 M)
In short: as §1

SUDIPGIV [25] = assay: as above
In short: as §1

DIPGX37 [26] = assay: as above
In short: as §1

DIPGX7 [27] = assay: as above
In short: as §1

SUDIPGXIX [28] = assay: as above
In short: as §1

DIPGX9 [29] = assay: as above
In short: as §1

SUDIPGXIII [30] = assay: as above
In short: as §1

HGGX42 [31] = assay: as above
In short: as §1

HGGX39 [32] = assay: as above
In short: as §1

SUDIPGXXI [33] = assay: as above
In short: as §1

SUDIPGVI [34] = assay: maximal growth inhibition (yFin) relative to DMSO / staurosporine; higher = more efficacious
In short: as §1

HGGX6 [35] = assay: as above
In short: as §1

SUDIPGXVII [36] = assay: as above
In short: as §1

SUDIPGVI [37] = assay: EC50 (inflection of fitted growth-inhibition curve) (log10 M)
In short: as §1

HGGX6 [38] = assay: as above
In short: as §1

SUDIPGXVII [39] = assay: as above
In short: as §1

SMILES | maximal growth inhibition (SUDIPGXIII [7]) [%] | area under dose-response curve (DIPGX29 [11]) | area under dose-response curve (HGGX2) | area under dose-response curve (SUDIPGIV [12]) | area under dose-response curve (DIPGX37 [13]) | area under dose-response curve (DIPGX7 [14]) | area under dose-response curve (SUDIPGXIX [15]) | area under dose-response curve (DIPGX9 [16]) | area under dose-response curve (SUDIPGVI [17]) | area under dose-response curve (HGGX6 [18]) | area under dose-response curve (HABS) | area under dose-response curve (SUDIPGXVII [19]) | area under dose-response curve (SUDIPGXIII [20]) | area under dose-response curve (HGGX42 [21]) | area under dose-response curve (HGGX39 [22]) | area under dose-response curve (iAstro) | area under dose-response curve (SUDIPGXXI [23]) | EC50 (log10 M) (SUDIPGXIII [30]) | also measured
Cn1cnc([N+](=O)[O-])c1Sc1ncnc2[nH]cnc12 [AZATHIOPRINE] | 21 | 119 | 49.3 | 60 | 87.5 | 35.7 | 42.2 | 52.8 | 29 | 50.7 | 15.3 | 37.4 | 38.7 | 51 | 80.7 | 6.8 | 119 | -6.03 | maximal growth inhibition (DIPGX29 [1]): 55.9%; maximal growth inhibition (SUDIPGIV [2]): 34%; maximal growth inhibition (DIPGX37 [3]): 53.7%; maximal growth inhibition (DIPGX7 [4]): 32.3%; maximal growth inhibition (SUDIPGXIX [5]): 25.4%; maximal growth inhibition (DIPGX9 [6]): 27.4%; maximal growth inhibition (HGGX42 [8]): 23.2%; maximal growth inhibition (HGGX39 [9]): 52.1%; maximal growth inhibition (SUDIPGXXI [10]): 43.4%; EC50 (log10 M) (DIPGX29 [24]): -6.11; EC50 (log10 M) (SUDIPGIV [25]): -5.75; EC50 (log10 M) (DIPGX37 [26]): -5.6; EC50 (log10 M) (DIPGX7 [27]): -5.08; EC50 (log10 M) (SUDIPGXIX [28]): -6.06; EC50 (log10 M) (DIPGX9 [29]): -5.87; EC50 (log10 M) (HGGX42 [31]): -6.39; EC50 (log10 M) (HGGX39 [32]): -5.65; EC50 (log10 M) (SUDIPGXXI [33]): -6.73
CC(C)C[C@H](NC(=O)[C@H](Cc1ccccc1)NC(=O)c1cnccn1)B(O)O [BORTEZOMIB] | 96.5 | 287 | 450 | 581 | 493 | 575 | 568 | 571 | 499 | 347 | 506 | 392 | 491 | 312 | 455 | 461 | 634 | -9.99 | maximal growth inhibition (SUDIPGVI [34]): 95.6%; maximal growth inhibition (HGGX6 [35]): 91.4%; maximal growth inhibition (SUDIPGXVII [36]): 91.2%; EC50 (log10 M) (SUDIPGVI [37]): -9.92; EC50 (log10 M) (HGGX6 [38]): -7.84; EC50 (log10 M) (SUDIPGXVII [39]): -8.34
